How the values were obtained:
hGIPR = molecular target: T1, hGIPR (Homo sapiens, UniProt P48546); assay: hGIPR CreLuc assay in 0.5% and 100% plasma (CHO CRE-luciferase reporter cells); type: cell-based; conditions: 0.5% human plasma, read-out: hGIPR 0.5% hP
T1 construct: expressed in transfected cells; host or cells: CHO CRE-luciferase reporter cells
T1 sequence (P48546 22-466): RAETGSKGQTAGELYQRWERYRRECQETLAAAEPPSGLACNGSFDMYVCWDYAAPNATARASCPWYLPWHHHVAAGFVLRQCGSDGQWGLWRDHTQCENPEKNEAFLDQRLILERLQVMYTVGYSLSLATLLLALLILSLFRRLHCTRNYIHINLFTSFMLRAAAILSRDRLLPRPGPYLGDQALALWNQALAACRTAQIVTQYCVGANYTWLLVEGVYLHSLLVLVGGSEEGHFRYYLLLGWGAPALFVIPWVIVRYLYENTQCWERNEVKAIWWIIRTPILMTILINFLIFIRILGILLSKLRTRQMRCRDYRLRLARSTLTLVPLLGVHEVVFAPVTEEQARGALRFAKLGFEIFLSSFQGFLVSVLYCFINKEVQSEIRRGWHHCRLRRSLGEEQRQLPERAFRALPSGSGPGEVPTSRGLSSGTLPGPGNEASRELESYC

[1] = Solubility in 0.1 M phosphate buffer at pH 7; type: physicochemical; conditions: 0.1 M phosphate buffer at pH 7, 10 mg/mL final peptide concentration, shaking 2 hours at room temperature, peptides as TFA-salts, measured sample pH 6.5-7.0

Row | Structure (SMILES) | EC50 (hGIPR) [nM] | solubility at 2 h [1] [µg/mL] | solubility ([1]; read-out: Solubility) [µg/mL]
1 | CC[C@H](C)[C@H](NC(=O)[C@H](CC(C)C)NC(=O)[C@H](Cc1c[nH]cn1)NC(=O)[C@H](CCCNC(=N)N)NC(=O)[C@@H](NC(=O)[C@H](Cc1ccccc1)NC(=O)[C@H](CO)NC(=O)C(C)(C)NC(=O)[C@H](CCC(N)=O)NC(=O)[C@H](C)NC(=O)[C@H](CCC(N)=O)NC(=O)[C@H](CCCCN)NC(=O)[C@H](CCC(=O)O)NC(=O)[C@H](CC(C)C)NC(=O)C(C)(C)NC(=O)[C@@H](NC(=O)[C@H](CO)NC(=O)[C@H](Cc1ccc(O)cc1)NC(=O)[C@H](CC(=O)O)NC(=O)[C@H](CO)NC(=O)[C@@H](NC(=O)[C@H](Cc1ccccc1)NC(=O)[C@@H](NC(=O)CNC(=O)[C@H](CCC(=O)O)NC(=O)C(C)(C)NC(=O)[C@@H](N)Cc1ccc(O)cc1)[C@@H](C)O)[C@@H](C)O)[C@@H](C)CC)C(C)C)C(=O)N[C@@H](CC(N)=O)C(=O)N[C@@H](CCCCNC(=O)[C@@H](N)CCCCNC(=O)CC[C@H](NC(=O)CC[C@H](NC(=O)CC[C@H](NC(=O)CC[C@H](NC(=O)CC[C@H](NC(=O)CC[C@H](NC(=O)CCCCCCCCCCCCCCCCC(=O)O)C(=O)O)C(=O)O)C(=O)O)C(=O)O)C(=O)O)C(=O)O)C(=O)NC(C)(C)C(=O)N[C@H](C(=O)N[C@@H](CCCNC(=N)N)C(=O)N[C@@H](CCC(N)=O)C(=O)N[C@@H](CCCNC(=N)N)C(=O)N[C@@H](Cc1ccc(O)cc1)C(N)=O)[C@@H](C)O [Compound 144, Y-Aib-E-G-T-F-T-S-D-Y-S-I-Aib-L-E-K-Q-A-Q-Aib-S-F-V-R-H-L-I-N-K(1,3)-Aib-T-R-Q-R-Y-NH2.C18DA-gGlu-gGlu-gGlu-gGlu-gGlu-gGlu-eLys(1,2)] | 0.4 | 4300 | –
2 | CC[C@H](C)[C@H](NC(=O)[C@H](CC(C)C)NC(=O)[C@H](Cc1c[nH]cn1)NC(=O)[C@H](CCCNC(=N)N)NC(=O)[C@@H](NC(=O)[C@H](Cc1ccccc1)NC(=O)[C@H](CCC(=O)O)NC(=O)C(C)(C)NC(=O)[C@H](CCC(N)=O)NC(=O)[C@H](C)NC(=O)[C@H](CCC(N)=O)NC(=O)[C@H](CCCCN)NC(=O)[C@H](CCC(=O)O)NC(=O)[C@H](CC(C)C)NC(=O)C(C)(C)NC(=O)[C@@H](NC(=O)[C@H](CO)NC(=O)[C@H](Cc1ccc(O)cc1)NC(=O)[C@H](CC(=O)O)NC(=O)[C@H](CO)NC(=O)[C@@H](NC(=O)[C@H](Cc1ccccc1)NC(=O)[C@@H](NC(=O)CNC(=O)[C@H](CCC(=O)O)NC(=O)C(C)(C)NC(=O)[C@@H](N)Cc1ccc(O)cc1)[C@@H](C)O)[C@@H](C)O)[C@@H](C)CC)C(C)C)C(=O)N[C@@H](CC(N)=O)C(=O)N[C@@H](CCCCNC(=O)[C@@H](N)CCCCNC(=O)CC[C@H](NC(=O)CC[C@H](NC(=O)CC[C@H](NC(=O)CC[C@H](NC(=O)CC[C@H](NC(=O)CC[C@H](NC(=O)CCCCCCCCCCCCCCCCCCC(=O)O)C(=O)O)C(=O)O)C(=O)O)C(=O)O)C(=O)O)C(=O)O)C(=O)NC(C)(C)C(=O)N[C@H](C(=O)N[C@@H](CCCNC(=N)N)C(=O)N[C@@H](CCC(N)=O)C(=O)N[C@@H](CCCNC(=N)N)C(=O)N[C@@H](Cc1ccc(O)cc1)C(N)=O)[C@@H](C)O [Compound 149, Y-Aib-E-G-T-F-T-S-D-Y-S-I-Aib-L-E-K-Q-A-Q-Aib-E-F-V-R-H-L-I-N-K(1,3)-Aib-T-R-Q-R-Y-NH2.C20DA-gGlu-gGlu-gGlu-gGlu-gGlu-gGlu-eLys(1,2)] | 0.6 | – | 4900

— US20250382344A1, “Soluble GLP1/GIP/NPY2 Receptor Triple Agonists” (Boehringer Ingelheim International GmH, priority 2024, published 2025)
